Measured values from PMC12457078, “Inhibition of soluble epoxide hydrolase in endotoxin induced pig lung injury” (Frontiers in Pharmacology, 2025).
“And” between values parts separate entries of the source, which are not always exact repeats. Identical values can stand only once. “Also recorded” adds a separate entry of the source.

Test system: endotoxin-induced lung injury
Assay: porcine model of LPS-induced acute lung injury: haemodynamics, ventilation/mechanics, blood gases, P/F, chemistry, temperature, survival
Type: in vivo, pig
Design: AF baseline / AF end / Ven. sat end: unit not given here; PaO2 3 h / PaO2 6 h: unit: kPa
Method: The animals were bred for purpose at the Forslunda Agricultural School in Umeå, Sweden. The pigs were pairwise kept in 8 m^2 pens before start of experiments and were fed twice daily with a commercially available pig diet without antimicrobials, and with free access to water. Photoperiods were 12:12 h light:dark. Room temperature in their stall was 20 °C ± 1 °C.
After overnight fasting, but with free access to water and hay, animals were pre-medicated with ketamine (Ketaminol vet® 100 mg/mL; Intervet International B.V, Boxmeer, Netherlands), xylazine (Rompun® vet 20 mg/mL; Bayer Animal Health, Copenhagen, Denmark) and atropine (Atropin Mylan 0.5 mg/mL; Mylan AB, Stockholm, Sweden) by intramuscular injection before an auricular vein was cannulated. Anesthesia was induced with ketamine and midazolam (Midazolam Hameln 5 mg/mL, Hameln Pharmaceuticals, Hameln, Germany) and maintained with ketamine, midazolam, xylazine and fentanyl (Fentanyl 0.05 mg/mL, B. Braun Medical AB, Danderyd, Sweden). The animals were orotracheally intubated and ventilated with tidal volume 8–9 mL/kg, PEEP 8 cmH2O, and a respiratory rate set to achieve an end-tidal carbon dioxide of 5–5.5 kPa.
One animal served as a pharmacokinetic pilot, with arterial and venous catheters placed in a cut-down in the neck. The remaining 21 animals were used for the randomized study (Figure 1). After intubation and start of mechanical ventilation, a second auricular vein cannula was placed and infusion of either AEPU or placebo according to randomization was started. After 2 h of infusion of AEPU or placebo, an infusion of LPS was started. A bolus of 0.1 mg/kg was administered during 30 min after which the infusion rate was adjusted to 0.01 mg/kg/h. During the time between start of AEPU or placebo and LPS infusion, neck dissection was performed, exposing the v jugularis externa and carotid artery. A pulmonary artery introducer and an arterial cannula were placed in vein and artery respectively, and a pulmonary artery catheter introduced through the introducer and the tip placed in the correct position in the pulmonary artery placement guided by continuous invasive pressure monitoring or, when difficult, assisted by fluoroscopy. All surgical procedures were performed under sterile conditions.
AEPU was synthesized according to Kim et al. ([Kim et al., 2007]), delivered in 60 mg vials and dissolved in 30 mL pure ethanol as a co-solvent, of which either 20 mL was added to 980 mL of sodium chloride 9 mg/mL or 8 mL–392 mL sodium chloride, creating a solution of 0.04 mg/mL AEPU and 2% ethanol. The placebo infusion was prepared by adding either 20 mL of pure ethanol to 980 mL of sodium chloride 9 mg/mL or 8 mL of pure ethanol to 392 mL sodium chloride, creating a 2% ethanol solution. Each animal received an infusion of either 0.1 mg/kg/h AEPU or the corresponding volume of placebo solution.
A total of 200 mg of prefabricated lipopolysaccharides (LPS, Escherichia coli serotype 0,111:B4, Sigma-Aldrich (Product no L4130), St. Louis, MO, United States of America) was dissolved in 40 mL of sterile water, carefully mixed and filtered, creating a solution of 5 mg/mL. This preparation was stored frozen (−20 °C) in 1 mL partitions. For each animal, 2 mL of the thawed solution was mixed and diluted in 18 mL of sodium chloride, finally creating a 0.5 mg/mL LPS solution for infusion.
All animals were monitored with pulse oximetry, heart rate, ECG, systemic arterial blood pressure (ABP), pulmonary arterial pressure (PAP), central venous pressure (CVP) temperature, tidal volumes, respiratory rate and end tidal carbon dioxide. At baseline, and at 3 h, 6 h and at the end of the experiment, pulmonary capillary wedge pressure (PCWP) was measured together with arterial and venous blood gas analyses, as well as cardiac output calculations. […]

[1] = 3 h, individual animals, listed as sEH-i 950
[2] = 6 h, individual animals, listed as sEH-i 950
[3] = Lungmekanik, 3 h, individual animals, listed as sEH-i 950
[4] = Lungmekanik, 6 h, individual animals, listed as sEH-i 950
[5] = Lungmekanik, baseline, individual animals, listed as sEH-i 950
[6] = Lungmekanik, end, individual animals, listed as sEH-i 950
[7] = baseline, individual animals, listed as sEH-i 950
[8] = end, individual animals, listed as sEH-i 950
[9] = individual animals, 3 h, listed as sEH-i 950

With `CCOCCOCCOCCCCCNC(=O)NC12CC3CC(CC(C3)C1)C2` [Compound 950] the “AF 3 h” value [1] was 41 and 50 and 42 and 48 and 30 and 45 and 39 and 44 and 40, the “FiO2 3 h” value [1] was 0.4 and 0.5 and the “PaO2 3 h” value [1] was 22.1 and 20.1 and 17 and 22.7 and 19.3 and 16.7 and 9 and 8.1 and 7.3 and 14.7. For the same compound, the “AF 6 h” value [2] was 40 and 54 and 50 and 48 and 30 and 45 and 39 and 44, the “FiO2 6 h” value [2] was 0.4 and 0.5 and 0.8 and 0.7 and 1 and the “PaO2 6 h” value [2] was 19.6 and 12.3 and 11.8 and 18.6 and 18.5 and 14.7 and 8.7 and 9.4 and 6.8 and 7.9. For the same compound, the “lung injury development in LPS treated pigs” value (AEPU 0.1 mg/kg/h infusion vs placebo) was “did not attenuate”, the Premature death (AEPU group, did not survive entire protocol) was 40% and the “Mortalitet: Aktivt avslut” value (Ja = actively terminated, Nej = died, individual animals, listed as sEH-i 950) was “Nej and Ja and Nej*”. For the same compound, the “PIP 3 h” value [3] was 31 cmH2O and 28 cmH2O and 32 cmH2O and 24 cmH2O and 26 cmH2O and 34 cmH2O and 39 cmH2O and 44 cmH2O and 36 cmH2O, the “Pmedel 3 h” value [3] was 14 cmH2O and 15 cmH2O and 12 cmH2O and 13 cmH2O and 16 cmH2O and 17 cmH2O and the “Pplat 3 h” value [3] was 26 cmH2O and 23 cmH2O and 22 cmH2O and 27 cmH2O and 28 cmH2O and 25 cmH2O and 34 cmH2O and 33 cmH2O. The “PIP 6 h” value [4] was 32 cmH2O and 33 cmH2O and 28 cmH2O and 30 cmH2O and 22 cmH2O, the “Pmedel 6 h” value [4] was 13 cmH2O and 15 cmH2O and 14 cmH2O and 12 cmH2O and the “Pplat 6 h” value [4] was 27 cmH2O and 26 cmH2O and 23 cmH2O and 21 cmH2O and 18 cmH2O. The PIP baseline [5] was 25 cmH2O and 23 cmH2O and 19 cmH2O and 24 cmH2O and 26 cmH2O and 27 cmH2O, the Pmedel baseline [5] was 12 cmH2O and 15 cmH2O and 13 cmH2O and 11 cmH2O and 14 cmH2O and the Pplat baseline [5] was 19 cmH2O and 16 cmH2O and 18 cmH2O and 22 cmH2O and 17 cmH2O. For the same compound, the PIP end [6] was 30 cmH2O and 37 cmH2O and 29 cmH2O and 28 cmH2O and 46 cmH2O, the Pmedel end [6] was 13 cmH2O and 16 cmH2O and 14 cmH2O and the Pplat end [6] was 24 cmH2O and 29 cmH2O and 22 cmH2O and 28 cmH2O. The “PaO2/FiO2 3h” value (P/F-kvot, 3 h, individual animals, listed as sEH-i 950) was 55.25 and 40.2 and 42.5 and 56.75 and 48.25 and 41.75 and 22.5 and 16.2 and 18.25 and 36.75, the “PaO2/FiO2 6h” value (P/F-kvot, 6 h, individual animals, listed as sEH-i 950) was 49 and 24.6 and 23.6 and 46.5 and 46.25 and 36.75 and 10.87 and 13.43 and 6.8 and 19.75 and the PaO2/FiO2 baseline (P/F-kvot, baseline, individual animals, listed as sEH-i 950) was 73.75 and 71.5 and 73 and 67 and 72.75 and 65.25 and 70.5 and 72.25 and 61.75 and 74.75. The PaO2/FiO2 end (P/F-kvot, end, individual animals, listed as sEH-i 950) was 49.75 and 16.75 and 24 and 48.75 and 30.5 and 4.4 and 8.7, the FiO2 baseline (baseline, individual animals) was 0.4 and the AF baseline [7] was 40 and 42 and 26 and 34 and 46. For the same compound, the PaO2 baseline [7] was 29.5 and 28.6 and 29.2 and 26.8 and 29.1 and 26.1 and 28.2 and 28.9 and 24.7 and 29.9, the “Mortalitet: Dödsorsak” value (cause of death, individual animals, listed as sEH-i 950) was “Cirkulationssvikt; also recorded: Adrenalinet tog slut…; also recorded: *Tubbyte/Hypoxi; also recorded: Lungsvikt/Hypoxi” and the “P/F 3h - baseline” value (change of P/F from baseline to 3 h, individual animals, listed as sEH-i 950) was -18.5 and -31.3 and -30.5 and -10.25 and -24.5 and -23.5 and -48 and -56.05 and -43.5 and -38. The “P/F 6h - baseline” value (change of P/F from baseline to 6 h, individual animals, listed as sEH-i 950) was -24.75 and -46.9 and -49.4 and -20.5 and -26.5 and -28.5 and -59.625 and -58.8214 and -54.95 and -55, the “P/F 9h- baseline” value (change of P/F from baseline to 9 h (end), individual animals, listed as sEH-i 950) was -24 and -54.75 and -49 and -18.25 and -34.75 and -66.1 and -63.55 and the “Mortalitet, kommentarer” value (comments on clinical course, individual animals, listed as sEH-i 950) was “Instabil. Död i högersvikt 16.20 trots adrenalin; also recorded: Tidig start adrenalininf pga lågt CO; also recorded: Mycket svårt septisk. Extrema doser adrenalin; also recorded: Mycket svårt septisk. Högersvikt; also recorded: Relativt stabil. Nästan frisk i slutet; also recorded: Försök till tubbyte -> hypoxi + död; also recorded: Standardupplägg. Ter sig septisk redan vid induktion; also recorded: Svårt septisk redan från första början. Instabil. Död i cirkulationssvikt något i förtid. Misslyckad deff; also recorded: Septisk. Kräver adrenalininf. Uttalad lungskada. Lågt CO på slutet. Högdos adrenalin. Svår hjärtsvikt; also recorded: Svår sepsis med ffa svår lungsvikt. Mors i hypoxi efter 6 h. Sista prov (6h) några minuter före död. PSVT upprepat med självterminerande vid LPS-bolus”. The Fluid administration total (end of experiment, AEPU group) was 5785 (5080–7210) mL, the Urine output (end of experiment, AEPU group) was 700 (320–1200) mL and the AF end [8] was 40 and 54 and 50 and 48 and 45 and 39 and 44. For the same compound, the FiO2 end [8] was 0.4 and 0.8 and 0.5 and 1, the PaO2 end [8] was 19.9 and 13.4 and 12 and 19.5 and 12.2 and 4.4 and 8.7 and the “CO 3 h” value [9] was 3.2 L/min and 5.3 L/min and 3.6 L/min and 3.3 L/min and 5.7 L/min and 3.1 L/min and 4.2 L/min. The “CVP 3 h” value [9] was 15 mmHg and 21 mmHg and 14 mmHg and 10 mmHg and 17 mmHg and 18 mmHg and 13 mmHg and 16 mmHg, the “HR 3 h” value [9] was 141 and 137 and 175 and 135 and 140 and 119 and 162 and 144 and 164 and 114 and the “MAP 3 h” value [9] was 110 mmHg and 107 mmHg and 58 mmHg and 72 mmHg and 94 mmHg and 79 mmHg and 88 mmHg and 106 mmHg and 52 mmHg and 99 mmHg. The “MPAP 3 h” value [9] was 65 mmHg and 39 mmHg and 41 mmHg and 43 mmHg and 46 mmHg and 47 mmHg and 54 mmHg and 51 mmHg and 55 mmHg, the “PCWP 3 h” value [9] was 21 mmHg and 15 mmHg and 17 mmHg and 19 mmHg and the “PaCO2 3 h” value [9] was 4.9 kPa and 5.9 kPa and 6.6 kPa and 5.6 kPa and 6.5 kPa and 5.2 kPa and 5.7 kPa and 6.9 kPa and 7.7 kPa and 5.8 kPa.
